Where two headings read alike, the source gives them in different places.
Columns and labels:
[1] = n-hexadecane/water; details: for P (n-hexadecane/water partition coefficient): shake-flask, P=l1/l2, ± error
[2] = value without superscript a: measured and listed in Table S1; cited from earlier work
[3] = n-hexadecane/1-octanol; details: for logP C16/O: calculated as logPC16/W-logPO/W
[4] = value without superscript b; ref ClogP database; cited from earlier work
[5] = 25 °C, shaking at 25 rpm, fit of eqs 1 and 2

Structure (SMILES)	P (n-hexadecane/water partition coefficient) ([1]; 25 °C)	l1 (rate parameter of transport from water to C16) [1, 5]	l2 (rate parameter of transport from C16 to water) [1, 5]	logP C16/O [3]	other results
c1ccncc1 [pyridine]	–	–	–	–	l1 (rate parameter of transport from water to C16) [1]: (9.512±0.343)×10^−2 cm/h; l2 (rate parameter of transport from C16 to water) [1]: (2.672±0.669)×10^−1 cm/h
O=C(c1ccccc1)c1ccc(Cl)cc1 [4-chlorobenzophenone]	(7.315±2.674)×10^2	(1.102±0.216)×10^2 cm/h	(1.507±0.465)×10^−1 cm/h	–	–
CC(C)(c1ccc(O)cc1)c1ccc(O)cc1 [bisphenol A]	–	–	–	−4.222	logP C16/W [2]: −0.902
CCCCCCCCCC [n-decane]	–	–	–	1.030	logP C16/W [2]: 7.010
OCc1c2ccccc2cc2ccccc12 [9-anthracenemethanol]	(2.211±0.554)×10^2	1.565 ± 0.236 cm/h	(7.080±1.416)×10^−3 cm/h	−0.700	logP O/W [4]: 3.040
OCc1ccccc1 [benzylalcohol]	–	–	–	−1.530	logP C16/W [2]: −0.430
Nc1ccccc1 [aniline]	(7.860±1.639)×10^−1	(1.502±0.286)×10^−1 cm/h	(1.912±0.162)×10^−1 cm/h	–	–
Nc1ccc([N+](=O)[O-])cc1 [4-nitroaniline]	(1.890±0.656)×10^−1	(1.192±0.406)×10^−1 cm/h	(6.295±0.407)×10^−1 cm/h	–	–
O=C(O)CCCCCCCCCCn1c2ccccc2c2ccccc21 [11-(9-carbazole)-undecanoic acid]	–	–	–	−1.418	–
CCC(O)c1ccccc1 (stereo not shown) [1-phenyl-1-propanol]	3.153±0.630	(3.864±0.154)×10^−1 cm/h	(1.226±0.240)×10^−1 cm/h	–	–
FC(F)(F)C(Cl)Br (stereo not shown) [halothane, reference compound]	–	–	–	−0.200	logP C16/W [2]: 2.100
NC(=O)Cc1ccccc1 [2-phenylacetamide]	–	(1.624±0.359)×10^−2 cm/h	(2.771±0.857)×10^−1 cm/h	–	–
CC(C)c1c(O)ccc2c1CC[C@H]1C(C)(C)CCC[C@]21C [totarol]	–	–	–	−0.924	–
CCOC(=O)c1ccc(N)cc1 [benzocaine, reference compound]	1.560±0.666	(1.163±0.488)×10^−1 cm/h	(7.455±0.577)×10^−2 cm/h	–	–
O=C(O)CCc1ccc(C=CC=CC=Cc2ccccc2)cc1 [4-(6-phenyl-1,3,5-hexatrien-1-yl)-benzenepropanoic acid]	–	–	–	−2.702	–
FC1(F)CCC1(F)Cl (stereo not shown) [1-chloro-1,2,2-trifluorocyclobutane]	–	–	–	1.436	–
O=C(O)Cc1c2ccccc2cc2ccccc12 [9-anthracene-acetic acid]	–	–	–	−2.570	–
Nc1cccc(Br)c1 [3-bromoaniline]	(1.107±0.106)×10^1	(6.304±0.471)×10^−1 cm/h	(5.693±0.339)×10^−2 cm/h	–	–
c1ccc2ncccc2c1 [quinoline]	–	(3.766±0.198)×10^−1 cm/h	(3.566±1.200)×10^−2 cm/h	–	–
c1ccc2[nH]ccc2c1 [indole]	5.660±0.633	(6.291±0.522)×10^−1 cm/h	(1.111±0.083)×10^−1 cm/h	−0.920	–
CC(=O)Nc1ccccc1 [acetanilide]	(2.580±0.857)×10^−1	(1.315±0.434)×10^−1 cm/h	(5.104±0.179)×10^−1 cm/h	–	–
CCCCCCCCO [1-octanol]	–	–	–	−1.310	–
C=CCc1ccccc1O [2-allylphenol]	–	(2.286±0.857)×10^−1 cm/h	(3.211±0.685)×10^−2 cm/h	–	–
CCOC(=O)c1cccnc1 [ethylnicotinate]	3.583±0.983	(5.074±1.031)×10^−1 cm/h	(1.416±0.261)×10^−1 cm/h	–	–
Cc1ccc(Cl)cc1[N+](=O)[O-] [4-chloro-2-nitrotoluene]	(8.660±3.938)×10^2	(2.168±0.605)×10^2 cm/h	(2.504±0.899)×10^−1 cm/h	–	–
O=[N+]([O-])c1ccccc1 [nitrobenzene]	–	–	–	–	l1 (rate parameter of transport from water to C16) [1]: 1.162 ± 0.218 cm/h; l2 (rate parameter of transport from C16 to water) [1]: (3.950±0.694)×10^−2 cm/h

Structure (SMILES)	P (n-hexadecane/water partition coefficient) ([1]; 25 °C)	l1 (rate parameter of transport from water to C16) [1, 5]	l2 (rate parameter of transport from C16 to water) [1, 5]	logP C16/O [3]	other results
O=CNc1ccccc1 [formanilide]	2.900±0.955)×10^−1	(1.532±0.501)×10^−1 cm/h	(5.283±0.213)×10^−1 cm/h	–	–
O=C=O [carbon dioxide]	–	–	–	–	affinity for n-hexadecane versus 1-octanol (logPC16/W vs logPO/W, Figure 1) ([3]; small molecules plotted as crosses in Figure 1): not observed
CC(C)(C)CC(C)(C)c1ccc(O)cc1 [4-tert-octylphenol]	–	–	–	−1.665	–
C(=CC=Cc1ccccc1)C=Cc1ccccc1 [1,6-diphenyl-1,3,5-hexatriene]	–	–	–	0.188	–
O=C(c1ccccc1)c1ccc(Br)cc1 [4-bromobenzophenone]	(2.891±0.684)×10^2	(1.054±0.026)×10^1 cm/h	(3.646±0.858)×10^−2 cm/h	–	–
Cc1ccc(C=CC=CC=Cc2ccccc2)cc1 [1-methyl-4-(6-phenyl-1,3,5-hexatrien-1-yl)-benzene]	–	–	–	0.193	–
FC(F)OC(Cl)C(F)(F)F (stereo not shown) [isofluorane, reference compound]	–	–	–	−0.410	–
C1=Cc2ccccc2C1 [1H-indene]	–	–	–	−0.078	logP O/W [4]: 2.920
CCCCCCCO [1-heptanol]	–	–	–	−1.655	–
O=C(O)CCCc1c[nH]c2ccccc12 [1H-indole-3-butanoic acid]	–	–	–	−3.531	–
Oc1ccccc1-c1ccccc1 [2-phenylphenol]	(3.536±1.329)×10^1	(3.699±0.935)×10^−1 cm/h	(1.046±0.291)×10^−2 cm/h	–	–
CCCCCc1cc(O)c2c(c1)OC(C)(C)[C@@H]1CC=C(C)C[C@@H]21 [Δ8-tetrahydrocannabinol]	–	–	–	−2.139	logP O/W [4]: 7.410
Cn1c2ccccc2c2ccccc21 [N-methylcarbazole]	–	–	–	0.799	logP O/W [4]: 3.990
CCc1ccccc1 [ethylbenzene]	–	–	–	0.050	–
c1ccc2c(c1)[nH]c1ccccc12 [9H-carbazole]	–	–	–	−0.851	–
CN[C@@H](C)[C@H](O)c1ccccc1 [ephedrine, reference compound]	–	–	–	−1.770	logP C16/W [2]: −0.840
Cc1c[nH]c2ccccc12 [3-methylindole]	–	–	–	−1.360	logP C16/W [2]: 0.810
CCCCCO [1-pentanol]	–	–	–	−1.745	–
CNC(=O)c1ccccc1 [N-methylbenzamide]	(6.450±1.180)×10^−1	(4.982±0.860)×10^−1 cm/h	(7.724±0.467)×10^−1 cm/h	–	–
Cc1c2ccccc2cc2ccccc12 [9-methylanthracene]	–	–	–	−0.015	logP O/W [4]: 5.070
NCCc1c2ccccc2cc2ccccc12 [9-anthracene-ethanamine]	–	–	–	−1.549	–
COc1ccccc1OC [1,2-dimethoxybenzene]	(2.723±1.352) ×10^1	1.171 ± 0.535 cm/h	(4.301±0.840)×10^−2 cm/h	–	–
Cn1ccc2ccccc21 [N-methylindole]	–	–	–	0.969	–
Cc1cc(O)ccc1Cl [4-chloro-3-methylphenol]	1.651±0.701	(1.491±0.611)×10^−1 cm/h	(9.029±1.001)×10^−2 cm/h	–	–
Cn1c(=O)c2c(ncn2C)n(C)c1=O [caffeine, reference compound]	–	(5.485±0.851)×10^−2 cm/h	(2.309±0.430)×10^−1 cm/h	–	–
CCCCCc1cc(OC)c2c(c1)OC(C)(C)C1CC=C(C)CC21 (stereo not shown) [methoxy-Δ8-tetrahydrocannabinol]	–	–	–	0.027	logP O/W [4]: 8.060
